Measurements: patent publication US4923885A, “5-amino-1-(4-naphthoylbenzyl)-1,2,3-triazole-4-carboxamides and analogs as antiproliferative agents” (Merck & Co., Inc., priority 1988, dated 1990)
≈ marks a conversion by molar mass, not a printed value.

How the values were obtained:
[1] = system: Normal Human Epidermal Keratinocytes (NHEK); experiment: Proliferation assay vs Normal Human Epidermal Keratinocytes (NHEK growth inhibition); assay type: cell-based; conditions: Dulbecco's modified Eagle's medium, 10% fetal calf serum, 37° C., 5% CO2, Giemsa, 650 nm, read-out: ED50 NHEK
Method: In these experiments, NHEK's were cultured in Dulbecco's modified Eagle's medium with 10% fetal calf serum at 37° C., 5% CO2. Each well of a 96 well plate was seeded with 2000 cells in 200 μl of each drug dilution in duplicate. A plate was stopped and fixed for each time point, stained with Giemsa and then read in a Titertek plate reader at 650 nm, and the absorbances were calibrated with known cell numbers on control plates. NHEK's were obtained from Clonetics Corporation at the secondary stage.

[2] = system: nucleotide biosynthesis in normal human epidermal keratinocyte cells; experiment: inhibition of nucleotide biosynthesis in normal human epidermal keratinocyte cells in vitro; assay type: cell-based; set-up: dose or concentration left out as unconfirmed
From the text: It has been known that it is the hyperproliferation of these cells in humans which causes psoriasis.

[3] = cited from earlier work; for side effects: psoriasis treatment; for clearing lesions: psoriasis, experimental use as chemotherapeutic agents; for effectiveness in treating psoriasis: inhibitors of purine or pyrimidine nucleotide biosynthesis

Question: With `NC(=O)c1nnn(Cc2cc(Cl)c(Cc3ccc(Cl)c4ccccc34)c(Cl)c2)c1N` [Cl, Cl, CH2, α-Naphth-4-Cl, 5-Amino-l-[4-[(4-chloro-l-naphthalene)methyl]-3,5dichlorobenzyl]-1,2,3-triazole-4-carboxamide] as the molecule, how does the IC50 [1] read?
Answer: 0.3 µg/mL (≈ 0.651 µM)

Question: Which IC50 [1] does the source give for `NC(=O)c1nnn(Cc2cc(Cl)c(C(=O)c3cccc4ccccc34)c(Cl)c2)c1N` [Cl, Cl, CO, α-Naphth, 5-Amino-l-[4-(l-naphthoyl)-3,5-dichlorobenzyl]-l,2,3-triazole-4-carboxamide] here?
Answer: 0.3 µg/mL (≈ 0.681 µM)

Question: Which IC50 [1] does the source give for `NC(=O)c1nnn(Cc2cc(Cl)c(C(=O)c3ccc4ccccc4c3)c(Cl)c2)c1N` [Cl, Cl, CO, β-Naphth, 5-Amino-1-[4-(2-naphthoyl)-3,5-dichlorobenzyl]-1,2,3-triazole-4-carboxamide] here?
Answer: 1 µg/mL (≈ 2.27 µM)

Question: Which IC50 [1] does the source give for `NC(=O)c1nnn(Cc2cc(Cl)c(Oc3ccc(Cl)c4ccccc34)c(Cl)c2)c1N` [Cl, Cl, O, α-Naphth-4-Cl, 5-Amino-l-[4-[(4-chloro-l-naphthalene)oxy]-3,5dichlorobenzyl]-1,2,3-triazole-4-carboxamide] here?
Answer: 0.3 µg/mL (≈ 0.648 µM)

Question: What does the source list for `NC(=O)c1nnn(Cc2cc(Cl)c(C(=O)c3ccc(Cl)c4ccccc34)c(Cl)c2)c1N` [Compound A, 5-amino-l-(4-(4-chloronaphthoyl)-3,5-dichlorobenzyl)-1,2,3-triazole-4-carboxamide]?
Answer: IC50 [1]: 0.08 µg/mL (≈ 0.169 µM); efficacy in inhibiting nucleotide biosynthesis [2]: inhibiting nucleotide biosynthesis

Question: With `COc1c(C)c2c(c(O)c1C/C=C(\C)CCC(=O)O)C(=O)OC2` [Mycophenolic acid] as the molecule, how does the effect on psoriasis ([3]; mycophenolic acid given orally) read?
Answer: controls psoriasis by causing remission

Question: And the side effects [3]?
Answer: unacceptable side effects

Question: What about the clearing lesions [3] of the same molecule?
Answer: success in clearing lesions

Question: With `O=C(O)C[C@H](NC(=O)CP(=O)(O)O)C(=O)O` [N-phosphonacetyl-L-aspartate] as the molecule, how does the “effectiveness in treating psoriasis” value [3] read?
Answer: effective in treating the disease

Question: And the side effects [3]?
Answer: unacceptable side effects due to toxicity

Question: For `NC(=O)c1nnn(Cc2cc(Cl)c(C(=O)c3ccc(Cl)cc3)c(Cl)c2)c1N` [Reference compound], which IC50 [1] is on record?
Answer: 0.5 to 1 µg/mL (≈ 1.18 to 2.35 µM)

Question: Which results are given for `O=c1[nH]cc(F)c(=O)[nH]1` [fluorouracil]?
Answer: effectiveness in treating psoriasis [3]: effective in treating the disease; side effects [3]: unacceptable side effects due to toxicity

Question: What does the source list for `CN(Cc1cnc2nc(N)nc(N)c2n1)c1ccc(C(=O)N[C@@H](CCC(=O)O)C(=O)O)cc1` [methotrexate]?
Answer: effectiveness in treating psoriasis [3]: effective in treating the disease; side effects [3]: unacceptable side effects due to toxicity

Question: With `Nc1nc2nc[nH]c2c(=S)[nH]1` [thioguanine] as the molecule, how does the “effectiveness in treating psoriasis” value [3] read?
Answer: effective in treating the disease

Question: What about the side effects [3] of the same molecule?
Answer: unacceptable side effects due to toxicity

Question: What about the clearing lesions [3] of the same molecule?
Answer: success in clearing lesions
